The results in this text go back to ChEMBL document CHEMBL5608163, “Structure modification of anoplin for fighting resistant bacteria” (Eur J Med Chem, 2024).

Data set [1] relates to Escherichia coli. Nature of the data set: Antibacterial activity against Escherichia coli ATCC 25922 assessed as reduction in bacterial growth measured after 24 hrs by Mueller-Hinton broth based two-fold serial dilution method. Type of data set: functional.
The test system of data set [2] is Staphylococcus aureus. Nature of the data set: Antibacterial activity against Staphylococcus aureus ATCC 25923 assessed as reduction in bacterial growth measured after 24 hrs by Mueller-Hinton broth based two-fold serial dilution method. In kind it is functional.
The next data set concerns Pseudomonas aeruginosa. Nature of the data set: Antibacterial activity against Pseudomonas aeruginosa ATCC 27853 assessed as reduction in bacterial cell growth measured for 18 hrs by Mueller-Hinton broth based two-fold serial dilution method. In kind it is functional.
Data set [3] relates to Escherichia coli. Nature of the data set: Antibacterial activity against Escherichia coli ATCC 25922 assessed as reduction in bacterial cell growth measured for 18 hrs by Mueller-Hinton broth based two-fold serial dilution method. Type of data set: functional.
The nature of data set [4]: Hemolytic activity in mouse erythrocyte incubated for 1 hr by microplate reader analysis. Type of data set: toxicity, cell-based. The conditions noted are these: erythrocytes.
The next data set relates to Bacillus subtilis. Nature of the data set: Antibacterial activity against Bacillus subtilis ATCC 23857 assessed as reduction in bacterial cell growth measured for 18 hrs by Mueller-Hinton broth based two-fold serial dilution method. Type of data set: functional.
Data set [5] concerns Staphylococcus aureus. Nature of the data set: Antibacterial activity against Staphylococcus aureus ATCC 25923 assessed as reduction in bacterial cell growth measured for 18 hrs by Mueller-Hinton broth based two-fold serial dilution method. In kind it is functional.
A short description of data set [6]: Hemolytic activity in mouse Red blood cells incubated for 1 hr by microplate reader assay. In kind it is toxicity, cell-based, Erythrocyte. The conditions noted are these: red blood cells.
In a further data set the test system is Klebsiella pneumoniae. Nature of the data set: Antibacterial activity against Klebsiella pneumoniae ATCC 700603 assessed as reduction in bacterial cell growth measured for 18 hrs by Mueller-Hinton broth based two-fold serial dilution method. Type of data set: functional.
Data set [7] deals with Escherichia coli. Nature of the data set: Antimicrobial activity against Escherichia coli assessed as reduction in microbial growth by broth micro-dilution method. In kind it is functional.
A further data set concerns Erythrocyte. Nature of the data set: Hemolytic activity in mouse RBC. Type of data set: toxicity, cell-based.
The subject of data set [8] is Staphylococcus aureus. Nature of the data set: Antimicrobial activity against Staphylococcus aureus assessed as reduction in microbial growth by broth microdilution method. Type of data set: functional.
The subject of data set [9] is Escherichia coli. Nature of the data set: Antibacterial activity against Escherichia coli. In kind it is functional.
Data set [10] concerns Staphylococcus aureus. Nature of the data set: Antibacterial activity against Staphylococcus aureus. Type of data set: functional.

In brackets after ≈: the same amount, converted by molar mass. Square brackets hold non-standard residues; d marks the D form. Peptide text beside a SMILES is read from it. * marks the point of attachment. Gly(N(CH2)2(3-indolyl)) = O=C(O)CNCCc1c[nH]c2ccccc12; Pentadecanoyl = CCCCCCCCCCCCCCC(=O)*; NMeR = CN[C@@H](CCCNC(=N)N)C(=O)O; Undecanoyl = CCCCCCCCCCC(=O)*; NMeK = CN[C@@H](CCCCN)C(=O)O; Nonanoyl = CCCCCCCCC(=O)*; Nphe = O=C(O)CNCc1ccccc1

For `CC(C)C[C@H](NC(=O)CN)C(=O)N[C@@H](CC(C)C)C(=O)N[C@@H](CCCCN)C(=O)N[C@@H](CCCNC(=N)N)C(N)=O` (H-GLLKR-NH2), the MIC is 53.2 µM (≈ 31.1 µg/mL) in the data set on Escherichia coli [1] and more than 53.2 µM in the data set with Staphylococcus aureus [2].
Consider `CCCCCCCCCCC(=O)NCC(=O)N[C@@H](CC(C)C)C(=O)N[C@@H](CC(C)C)C(=O)N[C@@H](CCCCN)C(=O)N(C)[C@@H](CCCNC(=N)N)C(=O)N[C@H](C(=O)N(C)[C@@H](CCCCN)C(=O)N[C@H](C(=O)N[C@@H](CC(C)C)C(=O)N[C@@H](CC(C)C)C(N)=O)[C@@H](C)O)[C@@H](C)CC` (Undecanoyl-GLLK[NMeR]I[NMeK]TLL-NH2), for which the MIC in the data set on Pseudomonas aeruginosa stood at 8 µM (≈ 10.8 µg/mL); in the data set on Escherichia coli [3] it was 16 µM (≈ 21.6 µg/mL); with Bacillus subtilis it was 8 µM (≈ 10.8 µg/mL); in the data set on Staphylococcus aureus [5] it was 32 µM (≈ 43.2 µg/mL); in the data set on Klebsiella pneumoniae it was 128 µM (≈ 173 µg/mL). For the same molecule, the HC50 at 1 h in data set [4] and in data set [6] was more than 256 µM in each case.
For `CCCCCCCCC(=O)NCC(=O)N[C@@H](CC(C)C)C(=O)N[C@@H](CC(C)C)C(=O)N(C)[C@@H](CCCCN)C(=O)N[C@@H](CCCNC(=N)N)C(=O)N[C@H](C(=O)N(C)[C@@H](CCCCN)C(=O)N[C@H](C(=O)N[C@@H](CC(C)C)C(=O)N[C@@H](CC(C)C)C(N)=O)[C@@H](C)O)[C@@H](C)CC` (Nonanoyl-GLL[NMeK]RI[NMeK]TLL-NH2), the MIC with Pseudomonas aeruginosa is 32 µM (≈ 42.3 µg/mL); in the data set with Escherichia coli [3] it was 128 µM (≈ 169 µg/mL); in the data set with Bacillus subtilis, 16 µM (≈ 21.1 µg/mL); in the data set with Staphylococcus aureus [5] it was 128 µM (≈ 169 µg/mL); with Klebsiella pneumoniae it was more than 128 µM. The HC50 at 1 h in data set [4] and in data set [6] was more than 256 µM throughout.
In the case of `CC[C@H](C)[C@H](NC(=O)[C@H](CCCNC(=N)N)NC(=O)[C@H](CCCCN)NC(=O)[C@H](CC(C)C)NC(=O)[C@H](CC(C)C)NC(=O)CN)C(N)=O` (H-GLLKRI-NH2), the MIC in the data set with Escherichia coli [1] was 54.6 µM (≈ 38.1 µg/mL); in the data set on Staphylococcus aureus [2], more than 54.6 µM.
Turning to `CCCCCCCCCCCCCCC(=O)NCC(=O)N[C@@H](CC(C)C)C(=O)N[C@@H](CC(C)C)C(=O)N(C)[C@@H](CCCCN)C(=O)N[C@@H](CCCNC(=N)N)C(=O)N[C@H](C(=O)N(C)[C@@H](CCCCN)C(=O)N[C@H](C(=O)N[C@@H](CC(C)C)C(=O)N[C@@H](CC(C)C)C(N)=O)[C@@H](C)O)[C@@H](C)CC` (Pentadecanoyl-GLL[NMeK]RI[NMeK]TLL-NH2), the MIC in the data set on Pseudomonas aeruginosa worked out at 16 µM (≈ 22.5 µg/mL); in the data set on Escherichia coli [3], 16 µM (≈ 22.5 µg/mL); in the data set on Bacillus subtilis it was 8 µM (≈ 11.2 µg/mL); in the data set on Staphylococcus aureus [5], 8 µM (≈ 11.2 µg/mL); with Klebsiella pneumoniae it was 32 µM (≈ 45 µg/mL). For the same molecule, the HC50 at 1 h in data set [4] and in data set [6] was 64 µM in each case.
As to `CCCCCCCCCCC(=O)NCC(=O)N[C@@H](CC(C)C)C(=O)N[C@@H](CC(C)C)C(=O)N(C)[C@@H](CCCCN)C(=O)N[C@@H](CCCNC(=N)N)C(=O)N[C@H](C(=O)N(C)[C@@H](CCCCN)C(=O)N[C@H](C(=O)N[C@@H](CC(C)C)C(=O)N[C@@H](CC(C)C)C(N)=O)[C@@H](C)O)[C@@H](C)CC` (Undecanoyl-GLL[NMeK]RI[NMeK]TLL-NH2), the MIC in the data set on Pseudomonas aeruginosa was 8 µM (≈ 10.8 µg/mL); in the data set on Escherichia coli [3], 32 µM (≈ 43.2 µg/mL); in the data set on Bacillus subtilis, 4 µM (≈ 5.4 µg/mL); in the data set with Staphylococcus aureus [5] it was 32 µM (≈ 43.2 µg/mL); with Klebsiella pneumoniae, more than 128 µM. Moreover, the HC50 at 1 h in data set [4] and in data set [6] was more than 256 µM throughout.
Turning to `CC[C@H](C)[C@H](NC(=O)[C@H](CCCNC(=N)N)NC(=O)[C@H](CCCCN)NC(=O)[C@H](CC(C)C)NC(=O)[C@H](CC(C)C)NC(=O)CNCc1ccccc1)C(=O)N[C@@H](CCCCN)C(=O)N[C@H](C(=O)N[C@@H](CC(C)C)C(=O)N[C@@H](CC(C)C)C(N)=O)[C@@H](C)O` (H-[Nphe]LLKRIKTLL-NH2), the results for the MIC in the data set on Escherichia coli [7] and in the data set with Staphylococcus aureus [8] were 50 µM and more than 100 µM, respectively. In the data set on Erythrocyte, the HC10 is more than 50 µM.
Regarding `CC[C@H](C)[C@H](NC(=O)[C@H](CCCNC(=N)N)NC(=O)[C@H](CCCCN)NC(=O)[C@H](CC(C)C)NC(=O)[C@H](CC(C)C)NC(=O)CN)C(=O)N[C@@H](CCCCN)C(N)=O` (H-GLLKRIK-NH2), the results for the MIC with Escherichia coli [1] and with Staphylococcus aureus [2] were 33.9 µM (≈ 28 µg/mL) and more than 33.9 µM, respectively.
Consider `CC[C@H](C)[C@H](NC(=O)[C@@H](NC(=O)[C@H](CCCCN)NC(=O)[C@H](CC(C)C)NC(=O)[C@H](CC(C)C)NC(=O)[C@@H](N)CCCCN)C(C)C)C(=O)N[C@@H](CCCCN)C(=O)N[C@@H](CCCCN)C(=O)N[C@@H](CC(C)C)C(=O)N[C@@H](CC(C)C)C(N)=O` (H-KLLKVIKKLL-NH2), for which the MIC against Escherichia coli [9] is 5 µM (≈ 5.97 µg/mL); against Staphylococcus aureus [10] it was 7.5 µM (≈ 8.96 µg/mL).
As for `CC[C@H](C)[C@H](NC(=O)[C@H](CCCNC(=N)N)NC(=O)[C@H](CCCCN)NC(=O)[C@H](CC(C)C)NC(=O)[C@H](CC(C)C)NC(=O)CNCCc1c[nH]c2ccccc12)C(=O)N[C@@H](CCCCN)C(=O)N[C@H](C(=O)N[C@@H](CC(C)C)C(=O)N[C@@H](CC(C)C)C(N)=O)[C@@H](C)O` (H-[Gly(N(CH2)2(3-indolyl))]LLKRIKTLL-NH2), the figures for the MIC in the data set with Escherichia coli [7] and in the data set on Staphylococcus aureus [8] were 25 µM and 50 µM, respectively. In the data set on Erythrocyte, this molecule showed an HC10 of more than 50 µM.
